Here are results for seven molecules from PMC12673918, “Design, Synthesis, and Selective Antiproliferative Activity of Indolizine Derivatives as Microtubule Destabilizers” (Archiv Der Pharmazie, 2025).

Read-outs that look alike come from different tables or passages of the source.

Common to all, as to type: cell-based
One assay has as its system CAL‐27 (oral carcinoma). The assay can be described thus: Resazurin cell viability assay, CAL‐27. The conditions noted are these: Homo sapiens, CAL-27; for inhibition at 50 µM: read-out: % Cellular growth inhibition (at 50 µM) CAL‐27. In outline: (§1)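 Cells in DMEM/10% FBS, 1 × 10^3 per well, adhered overnight, then treated with compounds (0–50 µM) for 72 h. Viability read as fluorescence (ex 530, em 590 nm) after 4 h with 44 µM resazurin. % growth inhibition at 50 µM and IC50 by nonlinear regression, triplicates.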

The test system of a further assay is BT‐20 (breast carcinoma). The assay can be described thus: Resazurin cell viability assay, BT‐20. As to conditions: Homo sapiens, BT-20; for inhibition at 50 µM: read-out: % Cellular growth inhibition (at 50 µM) BT‐20. In outline:
as §1
On the technique in general: The colour change of resazurin is a common sign of viable cells or microbes.

In another assay the target is T1, human P2X7 receptor (Homo sapiens, UniProt Q99572).
T1 construct: host or cells: HEK-293
T1 sequence (Q99572 1-595): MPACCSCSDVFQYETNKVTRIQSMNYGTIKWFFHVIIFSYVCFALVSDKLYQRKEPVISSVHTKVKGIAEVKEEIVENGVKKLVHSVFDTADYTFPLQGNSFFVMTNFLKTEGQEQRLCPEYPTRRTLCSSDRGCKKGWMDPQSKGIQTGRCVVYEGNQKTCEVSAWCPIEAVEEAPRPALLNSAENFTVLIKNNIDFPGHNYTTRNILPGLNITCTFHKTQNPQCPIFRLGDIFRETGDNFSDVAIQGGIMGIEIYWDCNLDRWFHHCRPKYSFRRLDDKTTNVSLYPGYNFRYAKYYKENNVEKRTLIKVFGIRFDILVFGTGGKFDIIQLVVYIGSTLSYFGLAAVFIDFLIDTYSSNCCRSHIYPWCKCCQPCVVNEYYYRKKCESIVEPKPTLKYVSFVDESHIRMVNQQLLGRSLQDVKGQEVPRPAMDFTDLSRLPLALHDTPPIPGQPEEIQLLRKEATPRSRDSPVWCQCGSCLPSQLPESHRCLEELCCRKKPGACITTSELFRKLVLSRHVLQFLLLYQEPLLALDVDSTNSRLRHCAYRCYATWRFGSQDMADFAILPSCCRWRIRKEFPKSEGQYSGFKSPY
Description: YO‐PRO‐1 dye uptake assay for the P2X7 receptor. The conditions noted are these: for inhibition at 10 µM: P2X7, read-out: % Inhibition of P2X7R at 10 µM compounds’ concentration; for off‐target activity against the P2X7 receptor: 10 μM. In outline:
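Stable hP2X7-HEK-293 cells, 2.0–4.0 × 10^4/well, preincubated 30 min at 37 °C with antagonist dilutions (10^–5–10^–9 M). Assay buffer: 280 mM sucrose, 6.4 mM KCl, 10 mM HEPES, pH 7.4. YO-PRO-1 uptake read as fluorescence (ex 485/em 535 nm), with RFU plotted against concentration for inhibition.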

The mark [1] stands for this setting: 72 h, mean ± SD, n = 3, read-out: IC50 (nM) CAL‐27.
Setting [2] is: 72 hours, triplicate, read-out: IC50 (nM, Cellular growth inhibition) CAL-27 (supplement).
The mark [3] stands for this setting: 72 h, mean ± SD, n = 3, read-out: IC50 (nM) BT‐20.
Setting [4] is: 72 hours, triplicate, read-out: IC50 (nM, Cellular growth inhibition) BT-20 (supplement).

Consider `COc1ccc2c(C(=O)c3ccc(Cl)c(Cl)c3)ccn2c1` [Compound 7e, (6‐methoxyindolizin‐1‐yl)(3,4‐dichlorophenyl)methanone], for which the inhibition at 50 µM in the assay with CAL‐27 (oral carcinoma) (72 h, mean ± SD, n = 3) is 70 ± 3.8%; in the assay on BT‐20 (breast carcinoma) (72 h, mean ± SD, n = 3), 53 ± 1.8%. Besides, the IC50 (as a rule, the concentration that inhibits the measured activity by half) in the assay with CAL‐27 (oral carcinoma) (setting [1]) came to 12400 nM; with CAL‐27 (oral carcinoma) (setting [2]), 11900 nM; in the assay with BT‐20 (breast carcinoma) (setting [3]), 14100 nM; with BT‐20 (breast carcinoma) (setting [4]) it was 12400 nM. Also, on human P2X7 receptor, the inhibition at 10 µM is 4%.

Regarding `COc1ccc2c(C(=O)c3cc(OC)c(OC)c(OC)c3)c(C)cn2c1` [Compound 8a, (6‐methoxy‐2‐methylindolizin‐1‐yl)(3,4,5‐trimethoxyphenyl)methanone], the inhibition at 50 µM with CAL‐27 (oral carcinoma) (72 h, mean ± SD, n = 3) was 64 ± 2.7%; in the assay on BT‐20 (breast carcinoma) (72 h, mean ± SD, n = 3) it was 52 ± 5%. Moreover, the IC50 is 325 ± 92 nM in the assay on CAL‐27 (oral carcinoma) (setting [1]), 410 ± 212 nM in the assay on CAL‐27 (oral carcinoma) (setting [2]), 370 ± 28 nM with BT‐20 (breast carcinoma) (setting [3]) and 325 ± 92 nM in the assay with BT‐20 (breast carcinoma) (setting [4]). Moreover, the inhibition at 10 µM at human P2X7 receptor came to 9%.

Regarding `COc1ccc2c(C(=O)c3cc(OC)c(OC)c(OC)c3)c(C(C)(C)C)cn2c1` [Compound 8b, [2‐(Tert‐Butyl)‐6‐Methoxyindolizin‐1‐yl](3,4,5‐Trimethoxyphenyl)Methanone], the inhibition at 50 µM with CAL‐27 (oral carcinoma) (72 h, mean ± SD, n = 3) worked out at 84 ± 3.2%; in the assay on BT‐20 (breast carcinoma) (72 h, mean ± SD, n = 3), 62 ± 0.5%. Further, the inhibition at 10 µM on human P2X7 receptor was -7%.

In the case of `COc1ccc2c(C(=O)c3cc(OC)c(OC)c(OC)c3)c(C(F)(F)F)cn2c1` [Compound 8e, [6‐methoxy‐2‐(trifluoromethyl)indolizin‐1‐yl](3,4,5‐trimethoxyphenyl)methanone], the inhibition at 50 µM was 76 ± 1.3% with CAL‐27 (oral carcinoma) (72 h, mean ± SD, n = 3) and 62 ± 2.3% with BT‐20 (breast carcinoma) (72 h, mean ± SD, n = 3). Moreover, the IC50 with CAL‐27 (oral carcinoma) (setting [1]) was 75 ± 21 nM; in the assay on CAL‐27 (oral carcinoma) (setting [2]) it was 117 ± 32 nM; in the assay with BT‐20 (breast carcinoma) (setting [3]), 105 ± 49 nM; in the assay on BT‐20 (breast carcinoma) (setting [4]), 75 ± 21 nM. Also, the “off‐target activity against the P2X7 receptor” value on human P2X7 receptor is “none of the synthesized compounds, including 8e and 8h, showed significant activity”. Further, the inhibition at 10 µM on human P2X7 receptor amounted to 8%.

With `CCCc1cn2cc(OC)ccc2c1C(=O)c1cc(OC)c(OC)c(OC)c1` [Compound 8h, (6‐methoxy‐2‐propylindolizin‐1‐yl)(3,4,5‐trimethoxyphenyl)methanone], the inhibition at 50 µM in the assay with CAL‐27 (oral carcinoma) (72 h, mean ± SD, n = 3) is 90 ± 1.8%; with BT‐20 (breast carcinoma) (72 h, mean ± SD, n = 3) it was 71 ± 2.8%. Moreover, the IC50 in the assay with CAL‐27 (oral carcinoma) (setting [1]) amounted to 47 ± 18 nM; in the assay with CAL‐27 (oral carcinoma) (setting [2]), 75 ± 35 nM; in the assay on BT‐20 (breast carcinoma) (setting [3]), 90 ± 56 nM; in the assay on BT‐20 (breast carcinoma) (setting [4]) it was 47 ± 18 nM. In addition, the “off‐target activity against the P2X7 receptor” value at human P2X7 receptor was “none of the synthesized compounds, including 8e and 8h, showed significant activity”. The inhibition at 10 µM on human P2X7 receptor is -1%.

In the case of `COc1ccc2c(C(=O)c3cc(OC)c(OC)c(OC)c3)c(-c3ccc(C)cc3)cn2c1` [Compound 8j, [6‐methoxy‐2‐(p ‐tolyl)indolizin‐1‐yl](3,4,5‐trimethoxyphenyl)methanone], the inhibition at 50 µM came to 73 ± 4% in the assay on CAL‐27 (oral carcinoma) (72 h, mean ± SD, n = 3) and 61 ± 2% with BT‐20 (breast carcinoma) (72 h, mean ± SD, n = 3). The IC50 in the assay with CAL‐27 (oral carcinoma) (setting [1]) was 300 ± 85 nM; in the assay with CAL‐27 (oral carcinoma) (setting [2]) it was 465 ± 35 nM; in the assay on BT‐20 (breast carcinoma) (setting [3]), 465 ± 35 nM; with BT‐20 (breast carcinoma) (setting [4]), 300 ± 85 nM. Further, the inhibition at 10 µM at human P2X7 receptor is -2%.

Turning to `COc1ccc(-c2cn3cc(OC)ccc3c2C(=O)c2cc(OC)c(OC)c(OC)c2)cc1` [Compound 8k, [6‐methoxy‐2‐(4‐methoxyphenyl)indolizin‐1‐yl](3,4,5‐trimethoxyphenyl)methanone], the inhibition at 50 µM in the assay with CAL‐27 (oral carcinoma) (72 h, mean ± SD, n = 3) was found to be 73 ± 4.5%; in the assay on BT‐20 (breast carcinoma) (72 h, mean ± SD, n = 3), 64 ± 1.5%. For the same molecule, the concentration for half-maximal inhibition (IC50) turned out to be 690 ± 156 nM in the assay on CAL‐27 (oral carcinoma) (setting [1]), 880 ± 14 nM in the assay on CAL‐27 (oral carcinoma) (setting [2]), 800 ± 127 nM in the assay with BT‐20 (breast carcinoma) (setting [3]) and 690 ± 156 nM with BT‐20 (breast carcinoma) (setting [4]). Also, the inhibition at 10 µM on human P2X7 receptor turned out to be 10%.
